Patent publication US5340929A, “Trisazo dye and dye composition containing the same” (Orient Chemical Industries, Ltd., priority 1992, dated 1994)
Read-outs that look alike come from different tables or passages of the source.

Tests used:
[1] = prior art statement, background; cited from earlier work
[2] = prior art statement, background; cited from earlier work; remark: listed apart in the source
[3] = tested on: strains TA98; details: prior art statement, background; cited from earlier work
[4] = Hue of dye / writing; format: physicochemical
[5] = Water resistance of writing (drawdown paper dipped in tap water, reflection density); format: physicochemical; details: drawndown paper, 3% dye solution, air-dried one day
Experimental: Light resistance: The resulting dye was dissolved in a 5% aqueous diethylene glycol solution to obtain a 3% dye solution. […] A degree of discoloration was compared with that before testing.
Water resistance: The drawndown paper was air-dried for one day and dipped in tap water.
A: Reflection density is more than 70% of that before testing.
B: Reflection density is 50 to 70% of that before testing.
C: Reflection density is less than 50% that before testing.

[6] = tested on: strains TA98; format: cell-based
Experimental: Further, the trisazo dye of the present invention is a nontoxic trisazo dye which gives negative results in a back mutation test using an organism, which is generally known as a test method for evaluating toxicity, i.e. AMES test (mutation test).
Evaluation method of Ames test
Regarding various specimen solutions respectively containing a trisazo dyes obtained in Examples 1 to 8 of the present invention and dyes of Comparative Examples 1 to 3, the number of mutant colonies was determined using strains TA98. 2. When the ratio is less than 2, it is "negative" and, when the ratio is more than 2, it is "positive", and the results are shown in Table. 1.

SMILES	Light resistance of aqueous ink [1]	Water resistance of aqueous ink [2]	Ames test result [3]	Hue [4]	Hue ([4]; listed as Comp. Example 3)	Writing evaluation: Water resistance [5]	Ames test: ratio of the number of colonies to control ([6]; TA98, S-9 (+), 20 μg/plate)	Ames test: ratio of the number of colonies to control ([6]; TA98, S-9 (+), 78 μg/plate)	Ames test: ratio of the number of colonies to control ([6]; TA98, S-9 (+), 313 μg/plate)	Ames test: ratio of the number of colonies to control ([6]; TA98, S-9 (+), 1250 μg/plate)	Ames test: ratio of the number of colonies to control ([6]; TA98, S-9 (+), 5000 μg/plate)	Ames test: ratio of the number of colonies to control ([6]; TA98, S-9 (-), 20 μg/plate)	Ames test: ratio of the number of colonies to control ([6]; TA98, S-9 (-), 78 μg/plate)	Ames test: ratio of the number of colonies to control ([6]; TA98, S-9 (-), 313 μg/plate)	Ames test: ratio of the number of colonies to control ([6]; TA98, S-9 (-), 1250 μg/plate)	Ames test: ratio of the number of colonies to control ([6]; TA98, S-9 (-), 5000 μg/plate)
Nc1cc2c(O)c(N=Nc3ccc(N=Nc4ccc(S(=O)(=O)[O-])cc4)c4ccc(S(=O)(=O)[O-])cc34)c(S(=O)(=O)[O-])cc2cc1S(=O)(=O)[O-].[Na+].[Na+].[Na+].[Na+] [Food Black 2]	poor	poor														
Cc1cc(-c2ccc(N=Nc3c(S(=O)(=O)[O-])cc4cc(S(=O)(=O)[O-])c(N=Nc5ccccc5)c(O)c4c3N)c(C)c2)ccc1N=Nc1ccc(N)cc1N.[Na+].[Na+] [compound 3, C.I. Direct Black 154, reference compound]			false positive or positive	Greenish	greenish black	B (Reflection density is 50 to 70% of that before testing.)	1.92	2.35	2.50	1.50	0.85	0.72	0.68	0.84	0.76	0.96
